One assay has as its target T1, full length human TREX1 (Homo sapiens, UniProt Q9NSU2).
T1 construct: N-terminally His-Tev tagged full length human TREX1; made in house; host or cells: E. coli
T1 sequence (Q9NSU2 1-314): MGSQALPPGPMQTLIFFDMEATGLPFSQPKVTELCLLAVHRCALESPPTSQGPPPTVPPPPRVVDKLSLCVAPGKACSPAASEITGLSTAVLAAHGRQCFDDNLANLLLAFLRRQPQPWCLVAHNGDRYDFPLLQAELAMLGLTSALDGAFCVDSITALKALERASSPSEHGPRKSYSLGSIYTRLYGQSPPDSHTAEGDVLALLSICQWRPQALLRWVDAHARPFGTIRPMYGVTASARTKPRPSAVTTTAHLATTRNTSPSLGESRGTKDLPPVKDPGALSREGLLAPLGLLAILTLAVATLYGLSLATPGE
Nature of the assay: hTREX1 Biochemical Assay (fluorescence, dsDNA substrate degradation). Conditions: biochemical, read-out: hTREX1 IC50. The method, boiled down:
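Fluorescence rises as enzyme degrades a quenched TEX615-labelled dsDNA substrate (60 nM) in 50 mM Tris, 150 mM NaCl, 5 mM MgCl2, pH 7.4. Full-length His-Tev-tagged human TREX1, 4 pM, sits with compound 4 hours at 25° C before substrate; reaction 18 hours, stopped with EDTA.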

The target in the next assay is T2, full length mouse TREX1 (Mus musculus, UniProt Q91XB0).
T2 construct: N-terminally His-Tev tagged full length mouse TREX1; made in house; host or cells: E. coli
T2 sequence (Q91XB0 1-314): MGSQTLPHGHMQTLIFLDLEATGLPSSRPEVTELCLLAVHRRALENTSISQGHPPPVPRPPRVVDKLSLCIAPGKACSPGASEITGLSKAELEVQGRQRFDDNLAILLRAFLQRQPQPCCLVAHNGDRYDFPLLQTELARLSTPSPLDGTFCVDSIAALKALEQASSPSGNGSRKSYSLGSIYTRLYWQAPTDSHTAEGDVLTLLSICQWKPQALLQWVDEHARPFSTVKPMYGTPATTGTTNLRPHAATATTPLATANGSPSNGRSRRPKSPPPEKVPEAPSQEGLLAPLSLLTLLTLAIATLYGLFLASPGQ
Description: mTREX1 Biochemical Assay (fluorescence, dsDNA substrate degradation). The note with it: biochemical, read-out: mTREX1 IC50. The essentials: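 Reaction run 18 h at 25° C. with 60 nM TEX615/quencher-labelled dsDNA and 6 pM mouse TREX1 in Tris buffer (pH 7.4, 5 mM MgCl2, 1.0% DMSO), enzyme having sat 4 h with compound across 10 concentrations. EDTA quench; substrate degradation measured as fluorescence increase.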

For assay [1], the target named is T3, human TREX2 (residues M44-A279) (Homo sapiens, UniProt Q9BQ50).
T3 construct: human TREX2 (residues M44-A279, expressed in E. coli); made in house; host or cells: E. coli
T3 sequence (Q9BQ50 44-279 isoform Q9BQ50-1): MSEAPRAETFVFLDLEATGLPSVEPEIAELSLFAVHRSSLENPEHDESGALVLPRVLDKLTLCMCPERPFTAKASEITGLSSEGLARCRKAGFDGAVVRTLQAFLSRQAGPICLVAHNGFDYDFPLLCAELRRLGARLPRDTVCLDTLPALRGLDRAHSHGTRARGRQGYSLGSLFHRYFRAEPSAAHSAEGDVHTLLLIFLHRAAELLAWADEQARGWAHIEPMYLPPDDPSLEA
Nature of the assay: hTREX2 Biochemical Assay (fluorescence, dsDNA substrate degradation). The note with it: biochemical selectivity for hTREX1 vs hTREX2. The method, boiled down: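 Fluorogenic dsDNA degradation read at 615 nm (570 nm excitation) after EDTA quench. Final 60 nM substrate, 50 pM His-Tev-tagged enzyme, 5 mM MgCl2, pH 7.4, 1.0% DMSO; 4 h compound–enzyme preincubation then 18 h reaction, both 25 °C; 10-point titration.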

As for `Cc1nn(C)c(C)c1C(c1ccccc1C#N)C(C)c1nc(C(=O)Nc2cnoc2)c(O)c(=O)n1C` (single isomer, unassigned) [Example 78 D1E2], the half-inhibitory concentration (IC50) on full length human TREX1 and at full length mouse TREX1 was over 10 nM each time. For the same compound, the “hTREX1 vs hTREX2 selectivity” value in assay [1] is “A (A = <25 fold selective for hTREX1)”.
In the case of `CC(c1nc(C(=O)Nc2cnoc2)c(O)c(=O)n1C)C(c1nnn(C)n1)c1ccccc1C#N` (single isomer, unassigned) [Example 79 D1E1], the IC50 at full length human TREX1 and on full length mouse TREX1 was over 10 nM throughout. Besides, in assay [1], the “hTREX1 vs hTREX2 selectivity” value is on record as “A (A = <25 fold selective for hTREX1)”.
In the case of `CC(c1nc(C(=O)Nc2cnoc2)c(O)c(=O)n1C)C(c1nnn(C)n1)c1ccccc1C#N` (single isomer, unassigned) [Example 79 D2E1], the results for the half-inhibitory concentration (IC50) at full length human TREX1 and at full length mouse TREX1 were 1 to 10 nM and over 10 nM, respectively. For the same compound, the “hTREX1 vs hTREX2 selectivity” value in assay [1] is “A (A = <25 fold selective for hTREX1)”.
`CC(c1nc(C(=O)Nc2cnoc2)c(O)c(=O)n1C)C(c1nnn(C)n1)c1ccccc1C#N` (single isomer, unassigned) [Example 79 D2E2]: the IC50 at full length human TREX1 and on full length mouse TREX1 was over 10 nM throughout. The “hTREX1 vs hTREX2 selectivity” value in assay [1] is “A (A = <25 fold selective for hTREX1)”.
Consider `CC(c1nc(C(=O)Nc2cnoc2)c(O)c(=O)n1C)C(c1cnn(C)c1)c1ccc(O)cc1C#N` (single isomer, unassigned) [Example 80 D1E2], for which the half-maximal inhibitory concentration (IC50) on full length human TREX1 and at full length mouse TREX1 was over 10 nM each time. Further, the “hTREX1 vs hTREX2 selectivity” value in assay [1] was “C (C = >50 fold selective for hTREX1)”.
On to `CC(c1nc(C(=O)Nc2cnoc2)c(O)c(=O)n1C)C(c1cnn(C)c1)c1ccc(O)cc1C#N` (single isomer, unassigned) [Example 80 D2E2], for which the results for the half-maximal inhibitory concentration (IC50) at full length human TREX1 and at full length mouse TREX1 were 1 to 10 nM and over 10 nM, respectively. Further, the “hTREX1 vs hTREX2 selectivity” value in assay [1] is on record as “B (B = 25 to 50-fold selective for hTREX1)”.
Taken in the same sequence, the figures for `Cc1ncc(C(c2ccccc2C#N)C(C)c2nc(C(=O)Nc3cnoc3)c(O)c(=O)n2C)nc1C` (single isomer, unassigned) [Example 81 D1E1] were over 10 nM, over 10 nM and “A (A = <25 fold selective for hTREX1)”.
Taken in the same sequence, the figures for `Cc1ncc(C(c2ccccc2C#N)C(C)c2nc(C(=O)Nc3cnoc3)c(O)c(=O)n2C)nc1C` (single isomer, unassigned) [Example 81 D2E2] were over 10 nM, over 10 nM and “B (B = 25 to 50-fold selective for hTREX1)”.
In the same order, the values of `Cc1cnc(C)c(C(c2ccccc2C#N)C(C)c2nc(C(=O)Nc3cnoc3)c(O)c(=O)n2C)n1` (single isomer, unassigned) [Example 82 D1E2] are over 10 nM, over 10 nM and “B (B = 25 to 50-fold selective for hTREX1)”.
For the compound `Cc1cnc(C)c(C(c2ccccc2C#N)C(C)c2nc(C(=O)Nc3cnoc3)c(O)c(=O)n2C)n1` (single isomer, unassigned) [Example 82 D2E2], the concentration for half-maximal inhibition (IC50) on full length human TREX1 and at full length mouse TREX1 was over 10 nM throughout. In addition, in assay [1], the “hTREX1 vs hTREX2 selectivity” value is “B (B = 25 to 50-fold selective for hTREX1)”.
As for `Cc1nccc(C(c2ccccc2C#N)C(C)c2nc(C(=O)Nc3cnoc3)c(O)c(=O)n2C)n1` (single isomer, unassigned) [Example 83 D1E2], the half-maximal inhibitory concentration (IC50) at full length human TREX1 and on full length mouse TREX1 was over 10 nM throughout. In addition, in assay [1], the “hTREX1 vs hTREX2 selectivity” value was “A (A = <25 fold selective for hTREX1)”.
Consider `Cc1nccc(C(c2ccccc2C#N)C(C)c2nc(C(=O)Nc3cnoc3)c(O)c(=O)n2C)n1` (single isomer, unassigned) [Example 83 D2E2], for which the half-maximal inhibitory concentration (IC50) on full length human TREX1 and on full length mouse TREX1 was over 10 nM throughout. The “hTREX1 vs hTREX2 selectivity” value in assay [1] is given as “A (A = <25 fold selective for hTREX1)”.
Consider `CCn1cc(C(c2ccccc2Cl)C(C)c2nc(C(=O)Nc3cnoc3)c(O)c(=O)n2C)cn1` (single isomer, unassigned) [Example 85 D2E2], for which the half-inhibitory concentration (IC50) at full length human TREX1 and on full length mouse TREX1 was over 10 nM each time. In addition, in assay [1], the “hTREX1 vs hTREX2 selectivity” value was “A (A = <25 fold selective for hTREX1)”.
As for `CC(c1nc(C(=O)Nc2cnoc2)c(O)c(=O)n1C)C(c1cnn(CC(C)(C)O)c1)c1ccccc1Cl` (single isomer, unassigned) [Example 86 D1E2], the IC50 is 1 to 10 nM at full length human TREX1 and over 10 nM at full length mouse TREX1. Moreover, the “hTREX1 vs hTREX2 selectivity” value in assay [1] is reported as “A (A = <25 fold selective for hTREX1)”.
In the same order, the values of `CC(c1nc(C(=O)Nc2cnoc2)c(O)c(=O)n1C)C(c1cnn(CC(C)(C)O)c1)c1ccccc1Cl` (single isomer, unassigned) [Example 86 D2E1] are over 10 nM, over 10 nM and “A (A = <25 fold selective for hTREX1)”.
Taken in the same sequence, the figures for `CC(c1nc(C(=O)Nc2cnoc2)c(O)c(=O)n1C)C(c1cnn(CC(C)(C)O)c1)c1ccccc1Cl` (single isomer, unassigned) [Example 86 D2E2] were over 10 nM, over 10 nM and “A (A = <25 fold selective for hTREX1)”.
Taken in the same sequence, the figures for `CC(c1nc(C(=O)Nc2cnoc2)c(O)c(=O)n1C)C(c1cnn(CC2COC2)c1)c1ccccc1Cl` (single isomer, unassigned) [Example 88 D1E2] were 1 to 10 nM, over 10 nM and “A (A = <25 fold selective for hTREX1)”.
On to `CC(c1nc(C(=O)Nc2cnoc2)c(O)c(=O)n1C)C(c1cnn(CC2COC2)c1)c1ccccc1Cl` (single isomer, unassigned) [Example 88 D2E1], for which the half-inhibitory concentration (IC50) on full length human TREX1 and on full length mouse TREX1 was over 10 nM throughout. The “hTREX1 vs hTREX2 selectivity” value in assay [1] is given as “A (A = <25 fold selective for hTREX1)”.
`CC(c1nc(C(=O)Nc2cnoc2)c(O)c(=O)n1C)C(c1cnn(CC2COC2)c1)c1ccccc1Cl` (single isomer, unassigned) [Example 88 D2E2]: the 50% inhibitory concentration (IC50) at full length human TREX1 and at full length mouse TREX1 was over 10 nM each time. The “hTREX1 vs hTREX2 selectivity” value in assay [1] is reported as “A (A = <25 fold selective for hTREX1)”.
As to `CC(c1nc(C(=O)Nc2cnoc2)c(O)c(=O)n1C)C(c1cc(F)ccc1Cl)c1cn(C)nc1C#N` (single isomer, unassigned) [Example 89 D1E1], the IC50 on full length human TREX1 and on full length mouse TREX1 was over 10 nM throughout. Also, in assay [1], the “hTREX1 vs hTREX2 selectivity” value is recorded as “A (A = <25 fold selective for hTREX1)”.
As for `CC(c1nc(C(=O)Nc2cnoc2)c(O)c(=O)n1C)C(c1cnn(CC(C)(C)O)c1)c1cc(F)ccc1Cl` (single isomer, unassigned) [Example 92 D1E2], the half-maximal inhibitory concentration (IC50) at full length human TREX1 was 1 to 10 nM; on full length mouse TREX1, over 10 nM. The “hTREX1 vs hTREX2 selectivity” value in assay [1] is listed as “A (A = <25 fold selective for hTREX1)”.
`CC(c1nc(C(=O)Nc2cnoc2)c(O)c(=O)n1C)C(c1cnn(CC2COC2)c1)c1cc(F)ccc1Cl` (single isomer, unassigned) [Example 94 D1E2]: the IC50 at full length human TREX1 and at full length mouse TREX1 was over 10 nM throughout. For the same compound, the “hTREX1 vs hTREX2 selectivity” value in assay [1] is given as “A (A = <25 fold selective for hTREX1)”.
Consider `Cc1n[nH]c(C)c1C(c1ccccc1C#N)C(C)c1nc(C(=O)Nc2cnoc2)c(O)c(=O)n1C` (single isomer, unassigned) [Example 95 D2E1], for which the IC50 at full length human TREX1 and on full length mouse TREX1 was over 10 nM each time. In addition, the “hTREX1 vs hTREX2 selectivity” value in assay [1] is “A (A = <25 fold selective for hTREX1)”.
